# Source: ChEMBL document CHEMBL5244267, “A brief overview on recent advances in spiro[chromane-2,4'-piperidine]-4(3H)-one-functionalized compounds in medicinal chemistry research” (Bioorg Med Chem, 2020)
# Assays:
# [1] = Antioxidant activity assessed as DPPH free radical scavenging activity at 500 microg/ml; format: functional
# Carbonic anhydrase 9 = Carbonic anhydrase 9 (Homo sapiens, UniProt Q16790); assay: Binding affinity to human CA9 assessed as inhibition constant
# [2] = Antioxidant activity assessed as DPPH radical scavenging activity at 100 uM/ml; format: functional
# Erythrocyte = assay: Anti-inflammatory activity in human red blood cells assessed as protection of cell membrane at 100 ug/mL relative to control; format: functional; conditions: dose 100 µg/ml
# [3] = Antioxidant activity assessed as H2O2 radical scavenging activity; format: functional
# [4] = AUC (0 to infinity) in CD1 mouse at 10 mg/kg, iv administered as single dose by UPLC analysis; format: ADME, organism-based; design: dose 10 mg/kg, route iv; conditions: in vivo
# [5] = Half life in CD1 mouse at 3 mg/kg, iv; format: ADME, organism-based; conditions: in vivo
# [6] = Clearance in CD-1 mouse at 10 mg/kg iv measured by UPLC-MS/MS method; format: ADME, organism-based; conditions: in vivo
# [7] = Volume of distribution in CD-1 mouse at 10 mg/kg iv measured by UPLC-MS/MS method; format: ADME, organism-based; conditions: in vivo
# [8] = Cmax in CD1 mouse at 0.5 mg/kg, iv; format: ADME, organism-based; design: dose 0.5 mg/kg, route iv; conditions: in vivo
# [9] = AUC in CD1 mouse at 10 mg/kg, iv administered as single dose by UPLC analysis; format: ADME, organism-based; design: dose 10 mg/kg, route iv; conditions: in vivo
# MCF7 = assay: Anticancer activity against human MCF7 cells assessed as inhibition of cell proliferation measured after 48 hrs by MTT assay; format: functional, cell-based; conditions: MCF7, 48 h
# A2780 = assay: Anticancer activity against human A2780 cells assessed as inhibition of cell proliferation measured after 48 hrs by MTT assay; format: functional, cell-based; conditions: A2780, 48 h
# HT-29 = assay: Anticancer activity against human HT-29 cells assessed as inhibition of cell proliferation measured after 48 hrs by MTT assay; format: functional, cell-based; conditions: HT-29, 48 h
# Plasmodium falciparum = assay: Antiplasmodial activity against chloroquine-resistant Plasmodium falciparum Dd2 in HepG2 cells; format: functional, organism-based
# HepG2 = assay: Antiproliferative activity against human HepG2 cells assessed as reduction in cell viability after 24 hrs by MTT assay; format: functional, cell-based; conditions: HepG2, 24 h
# [10] = Lipophilicity, logP of the compound; format: physicochemical; conditions: octanol/water
# [11] = Aqueous solubility of the compound at pH 6.2; format: physicochemical; conditions: buffer
# [12] = Aqueous solubility of the compound at pH 5.0; format: physicochemical; conditions: buffer
# [13] = target: Acetyl-CoA carboxylase 1 (Rattus norvegicus) (UniProt P11497); assay: In vivo inhibition of ACC1 in Sprague-Dawley rat assessed as reduction in malonyl-CoA in liver at […] relative to control; format: functional
# [14] = In vivo inhibition of ACC2 in Sprague-Dawley rat assessed as reduction in malonyl-CoA in quadriceps at […] relative to control; format: functional
# [15] = target: Acetyl-CoA carboxylase 1 (Rattus norvegicus) (UniProt P11497); assay: In vivo inhibition of ACC1 in Sprague-Dawley rat assessed as reduction in malonyl-CoA in liver; format: functional
# [16] = In vivo inhibition of ACC2 in Sprague-Dawley rat assessed as reduction in malonyl-CoA in quadriceps; format: functional
smiles,measurement,setting,value
CCOC(=O)N1CCC2(CC1)CC(=O)c1cc(C(=O)/C=C3\C(=O)Nc4ccccc43)c(O)cc1O2,IC50,[1],1.74 µM
NS(=O)(=O)c1ccc(N2CCC3(CC2)CC(=O)c2ccccc2O3)c([N+](=O)[O-])c1,Ki,Carbonic anhydrase 9,0.229 µM
CN1CCC2(CC1)CC(=O)c1c(ccc3c1CCC(C)(C)O3)O2,IC50,[2]; read-out: IC50,6.59 µM
same,Activity,Erythrocyte,64.72%
NS(=O)(=O)c1ccc(N2CCC3(CC2)CC(=O)c2cc(Br)ccc2O3)c([N+](=O)[O-])c1,Ki,Carbonic anhydrase 9,0.199 µM
Cc1c(C(=O)c2ccc(-c3ccccc3)cc2)oc2cc3c(cc12)C(=O)CC1(CCN(CC(=O)OC(C)(C)C)CC1)O3,IC50,[2],63.92 µg/mL
same,IC50,[3],44.73 µg/mL
O=C(/C=C/c1ccc2c(c1)C(=O)CC1(CCN(CCc3ccccc3)CC1)O2)NO,AUC,[4]; mouse,1042 ng·h/mL
same,half-life,[5],9.1 h
same,CL,"[6]; mouse, iv, 10 mg/kg",79.8 mL/min/kg
same,Vd,[7],8.6 L/kg
same,Cmax,[8],2490 nM
same,AUC,[9],1600 ng·h/mL
COc1ccc2c(c1)C(=O)CC1(CCN(c3ccc(S(N)(=O)=O)cc3[N+](=O)[O-])CC1)O2,Ki,Carbonic anhydrase 9,1.56 µM
CCCOc1ccc2c(c1)OC1(CCN(c3ccc(S(N)(=O)=O)cc3[N+](=O)[O-])CC1)CC2=O,Ki,Carbonic anhydrase 9,4.15 µM
CC(C)(C)OCC(=O)CN1CCC2(CC1)CC(=O)c1cc(C(=O)/C=C3\C(=O)Nc4ccccc43)c(O)cc1O2,IC50,[1],6.85 µM
NS(=O)(=O)c1ccc(N2CCC3(CC2)CC(=O)c2ccc(OCCO)cc2O3)c([N+](=O)[O-])c1,Ki,Carbonic anhydrase 9,0.0465 µM
COc1ccc2c(c1)OC1(CCN(c3ccc(S(N)(=O)=O)cc3[N+](=O)[O-])CC1)CC2=O,Ki,Carbonic anhydrase 9,2.75 µM
CC(=O)N1CCC2(CC1)CC(=O)c1cc3c(cc1O2)CCC(C)(C)O3,IC50,[2]; read-out: IC50,5.32 µM
same,Activity,Erythrocyte,23.07%
O=C1Nc2ccccc2/C1=C/C(=O)c1cc2c(cc1O)OC1(CCN(Cc3ccccc3)CC1)CC2=O,IC50,[1],8.12 µM
COCCOc1ccc2c(c1)OC1(CCN(c3ccc(S(N)(=O)=O)cc3[N+](=O)[O-])CC1)CC2=O,Ki,Carbonic anhydrase 9,0.0454 µM
CC(=O)N1CCC2(CC1)CC(=O)c1cc(C(=O)/C=C3\C(=O)Nc4ccc(Br)cc43)c(O)cc1O2,IC50,[1],58.6 µM
CCOc1ccc2c(c1)C(=O)CC1(CCN(c3ccc(S(N)(=O)=O)cc3[N+](=O)[O-])CC1)O2,Ki,Carbonic anhydrase 9,2.84 µM
COc1cc(C(=O)N2CCC3(CC2)CC(=O)c2ccccc2O3)cc(OC)c1OC,IC50,MCF7,47.1 µM
same,IC50,A2780,18.8 µM
same,IC50,HT-29,23.2 µM
Cc1ccc2c(c1)C(=O)CC1(CCN(c3ccc(S(N)(=O)=O)cc3[N+](=O)[O-])CC1)O2,Ki,Carbonic anhydrase 9,3.55 µM
NS(=O)(=O)c1ccc(N2CCC3(CC2)CC(=O)c2ccc(Br)cc2O3)c([N+](=O)[O-])c1,Ki,Carbonic anhydrase 9,1.47 µM
COCCOc1ccc2c(c1)C(=O)CC1(CCN(c3ccc(S(N)(=O)=O)cc3[N+](=O)[O-])CC1)O2,Ki,Carbonic anhydrase 9,4.34 µM
CCCOc1ccc2c(c1)C(=O)CC1(CCN(c3ccc(S(N)(=O)=O)cc3[N+](=O)[O-])CC1)O2,Ki,Carbonic anhydrase 9,1.24 µM
CC(C)Oc1ccc2c(c1)C(=O)CC1(CCN(c3ccc(S(N)(=O)=O)cc3[N+](=O)[O-])CC1)O2,Ki,Carbonic anhydrase 9,3.3 µM
OC(CN1CCC2(CC1)CC(O)c1ccc3ccccc3c1O2)c1ccc(F)c(F)c1 (stereo unspecified),EC50,Plasmodium falciparum,0.35 µM
same,EC50,HepG2,19 µM
same,logP,[10],3.85
same,solubility,[11],> 42 µg/mL
same,solubility,[12],> 42 µg/mL
CCOc1ccc2c(c1)OC1(CCN(c3ccc(S(N)(=O)=O)cc3[N+](=O)[O-])CC1)CC2=O,Ki,Carbonic anhydrase 9,2.65 µM
CCOC(=O)N1CCC2(CC1)CC(=O)c1cc(C(=O)/C=C3\C(=O)Nc4ccc(Br)cc43)c(O)cc1O2,IC50,[1],48.5 µM
Cc1ccc(S(=O)(=O)N2CCC3(CC2)CC(=O)c2ccccc2O3)cc1,IC50,MCF7,6.78 µM
same,IC50,A2780,1.79 µM
same,IC50,HT-29,16 µM
O=C1CC2(CCN(C(=O)C34CC5CC(CC(C5)C3)C4)CC2)Oc2ccccc21,IC50,MCF7,23.9 µM
same,IC50,A2780,22.7 µM
same,IC50,HT-29,8.46 µM
O=C(/C=C/c1ccc2c(c1)C(=O)CC1(CCN(Cc3ccc(F)cc3)CC1)O2)NO,AUC(0-inf),"[4]; CD1, mouse",1490 ng·h/mL
same,half-life,[5],13 h
same,clearance,"[6]; CD-1, mouse",55.8 mL/min/kg
same,Vd,[7],5.9 L/kg
same,Cmax,[8],1830 nM
same,AUC,[9],1240 ng·h/mL
CC(=O)Oc1ccc2c(c1)C(=O)CC1(CCN(c3ccc(S(N)(=O)=O)cc3[N+](=O)[O-])CC1)O2,Ki,Carbonic anhydrase 9,4.08 µM
O=C1O[C@H]([C@@H](O)CO)C(O)=C1O [ASCORBIC ACID],IC50,[2]; read-out: IC50,8.64 µM
same,IC50,[1],8.64 µM
NS(=O)(=O)c1ccc(N2CCC3(CC2)CC(=O)c2cc(OCCO)ccc2O3)c([N+](=O)[O-])c1,Ki,Carbonic anhydrase 9,3.75 µM
CC(C)Oc1ccc2c(c1)OC1(CCN(c3ccc(S(N)(=O)=O)cc3[N+](=O)[O-])CC1)CC2=O,Ki,Carbonic anhydrase 9,0.0346 µM
CC(C)(C)OCC(=O)CN1CCC2(CC1)CC(=O)c1cc(C(=O)/C=C3\C(=O)Nc4ccc(Br)cc43)c(O)cc1O2,IC50,[1],56.3 µM
CC(=O)N1CCC2(CC1)CC(=O)c1cc(C(=O)/C=C3\C(=O)Nc4ccccc43)c(O)cc1O2,IC50,[1],47.7 µM
CC(C)(C)n1cc2c(n1)C(=O)CC1(CCN(C(=O)c3ccc4[nH]ncc4c3)CC1)O2,inhibition,[13],75%
same,inhibition (INH),[14],78%
same,ED50,[15],1.6 mg/kg
same,ED50,[16],2.6 mg/kg
NS(=O)(=O)c1ccc(N2CCC3(CC2)CC(=O)c2ccc(O)cc2O3)c([N+](=O)[O-])c1,Ki,Carbonic anhydrase 9,4.41 µM
CC(=O)N1CCC2(CC1)CC(=O)c1c(ccc3c1CCC(C)(C)O3)O2,IC50,[2]; read-out: IC50,6.59 µM
same,Activity,Erythrocyte,56.1%
O=C1Nc2ccc(Br)cc2/C1=C/C(=O)c1cc2c(cc1O)OC1(CCN(Cc3ccccc3)CC1)CC2=O,IC50,[1],12.7 µM
